Measured values reported in US6057335A, “Pyrazole derivatives” (Banyu Pharmaceutical Co., Ltd., priority 1996, dated 2000).
pIC50: −log10 of the molar value.

Biological target: T1, human NPY Y5 receptor (Homo sapiens, UniProt Q15761)
T1 construct: expressed in transfected cells; host or cells: COS-7, CHO and LM(tk-)
T1 sequence (Q15761 1-445): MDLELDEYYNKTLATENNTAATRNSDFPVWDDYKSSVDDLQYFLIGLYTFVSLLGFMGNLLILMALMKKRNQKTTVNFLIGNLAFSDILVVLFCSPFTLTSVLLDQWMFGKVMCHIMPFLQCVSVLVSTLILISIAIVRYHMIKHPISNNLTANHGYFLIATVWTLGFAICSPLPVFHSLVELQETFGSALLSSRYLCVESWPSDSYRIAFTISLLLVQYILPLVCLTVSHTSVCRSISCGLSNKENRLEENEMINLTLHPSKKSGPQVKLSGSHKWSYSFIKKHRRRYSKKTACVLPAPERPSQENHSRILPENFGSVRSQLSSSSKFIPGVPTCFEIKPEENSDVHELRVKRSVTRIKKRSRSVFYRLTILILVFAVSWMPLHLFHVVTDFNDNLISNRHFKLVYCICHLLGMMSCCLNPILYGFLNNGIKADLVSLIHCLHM
Assay: test of inhibition of NPY binding ([125I] peptide YY binding to NPY Y5 receptor)
Details: [125I] peptide YY 20,000 cpm, 25° C., 2 hours, pH 7.4, membrane preparations of cells expressing NPY Y5 receptor; read-out: IC50 value (concentration needed to inhibit 50% of the specific binding to the peptide YY)
Text: Pharmacological Test Example 1 (test of inhibition of NPY binding)
cDNA Sequence encoding a human NPY Y5 receptor [International Publication WO 96/16542] was cloned into expression vectors pcDNA3, pRc/RSV (manufactured by Invitrogen) and pCI-neo (manufactured by Promega). Using the cationic lipid method [see Proceedings of the National Academy of Science of the United States of America, vol.84, p.7413 (1987)], host cells COS-7, CHO and LM(tk-) (American Type Culture Collection) were transfected with the thus prepared expression vectors to obtain cells in which the NPY Y5 receptor had been expressed.
Each of the membrane preparations thus prepared from the cells in which the NPY Y5 receptor had been expressed was incubated together with each compound to be tested and 20,000 cpm of [^125 I] peptide YY (manufactured by Amersham) at 25° C. for 2 hours in an assay buffer solution (25 mM HEPES buffer, pH 7.4, containing 10 mM magnesium chloride, 1 mM phenylmethylsulfonyl fluoride and 0.1% bacitracin) and then, the reaction mixture was filtered through a glass filter GF/C. After washing with 50 mM Tris buffer, pH 7.4, containing 0.3% BSA, radioactivity on the glass filter was measured using a gamma counter. […]

- pIC50: 8.60
SMILES: COc1ccc(-c2cc(NC(=O)C3Cc4cc5ccccc5cc4C3)n[nH]2)cc1OC [Example 30, 3-(2,3-dibydro-1H-cyclopenta[b]naphthalen-2-yl)carbonylamino-5-(3,4-dimethoxyphenyl)pyrazole]
